Measurements published in PubChem BioAssay AID2401 (Southern Research Specialized Biocontainment Screening …, 2010).
Several values for one entry are separate records, joined by “and”; a condition that tells them apart may be missing. Equal entries are not always repeated.

System: S. Typhimurium GFP reporter counter-screen, fluorescence, 4 h
Assay: S. Typhimurium nonspecific reporter signal inhibition – Salmonella Typhimurium, GFP fluorescence, counter-screen for PhoP regulon inhibitor project, dose response (AID 2401);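 also: S. typhimurium with Mg-insensitive nmpC-GFP reporter grown at 10 µM Mg2+; drop in reporter fluorescence reflects general culture growth inhibition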

CO[C@H]1/C=C/O[C@@]2(C)Oc3c(C)c(O)c4c(O)c(c(C=NN5CCN(C)CC5)c(O)c4c3C2=O)NC(=O)/C(C)=C\C=C\[C@H](C)[C@H](O)[C@@H](C)[C@@H](O)[C@@H](C)[C@H](OC(C)=O)[C@@H]1C
IC50: 6.41 µM

CCCCCCCCCC[N+](C)(C)CC/C=C1/c2ccccc2Sc2ccc(Cl)cc21
IC50: 18.9 µM

NC1=NC[C@H](Cc2ccc(O)cc2)N1CCCCC1CCCCC1
IC50: 51 µM

O=c1[nH][nH]c(-c2ccccc2O)c1C(C[N+](=O)[O-])c1ccc(Br)cc1 (configuration not stated)
IC50: 51.7 µM

CCCCCCCSc1cc(OC)c(CCNC)cc1OC
IC50: 39.4 µM

Cc1ccccc1NC(=O)CCC(=O)N/N=C/c1cc([N+](=O)[O-])ccc1O
IC50: 48.6 µM

O=c1cc2oc3cc(O)c(O)cc3c(-c3ccccc3[N+](=O)[O-])c-2cc1O
IC50: 28.5 µM

Oc1ccc(CNc2ccccc2F)c2cccnc12
IC50: 45.7 µM

CCCCCCCCCCCCCCCCn1cc[n+](CC(C)=O)c1
IC50: 33.9 µM

Cc1cc(C)c2ccc(N)nc2c1O
IC50: 35.7 µM

O=C(N/N=C/c1ccc(Sc2ccccn2)o1)c1cc2ccccc2cc1O
IC50: 107 µM

C/C(=N\Nc1nc2ccccc2[nH]1)c1ccccn1
IC50: 22.5 µM

CCCCNC(=O)c1cn(CC)c2cc(N3CCN(C)CC3)c(F)cc2c1=O
IC50: 41.8 µM

O=C(N/N=C/c1cc([N+](=O)[O-])ccc1O)C1CC1
IC50: 34 µM

Cc1cc(/C=N/n2c(COc3ccccc3)nc3ccccc3c2=O)c(O)c([N+](=O)[O-])c1
IC50: 56.5 µM

Cc1ccc(S(=O)(=O)/N=C2/C=C(Sc3ncn[nH]3)C(=O)c3ccccc32)c(C)c1
IC50: 149 µM

CCCCCc1ccc(OCCOCCn2c[n+](C)c3ccccc32)c(CCCCC)c1
IC50: 63.2 µM

CCn1cc(C(=O)O)c(=O)c2cc3c(cc21)OCO3
IC50: 80.6 µM

COc1ccc(OCC(O)CNc2ccc(Br)cc2)cc1 (configuration not stated)
IC50: 14.3 µM

CC(C)C(=O)NC(c1cccc([N+](=O)[O-])c1)c1ccc2cccnc2c1O (configuration not stated)
IC50: 51.7 µM

O=[N+]([O-])c1cc(O)c2ncccc2c1
IC50: 16.8 µM

COC(=O)C1C(O)C(C)C(O)C(C)(O)/C=C\C=C(/C)C(=O)Nc2c(C)c(OC(C)=O)c3c(c2O)C(=O)C(C)=C2OCOC(=C23)/C(C)=C/C(C)(O)C(O)C(C)C1O (configuration not stated)
IC50: 12.6 µM

Cc1ccc(-c2csc(N=C(N)N)n2)cc1
IC50: 109 µM

Cc1nc(N)c(Cc2ccc(Cl)cc2Cl)c(N)n1
IC50: 40.6 µM

CCn1cc(C(=O)O)c(=O)c2cc(F)c(N3CCN(C(=S)NC(=O)c4cccc(C)c4)CC3)cc21
IC50: 34.7 µM

Cc1cc(C(=O)N/N=C/c2ccc(O)c(O)c2O)c(C)n1-c1ccccc1
IC50: 22.8 µM

O=C(Nc1ccccc1)Nc1ccc(Cl)c([N+](=O)[O-])c1
IC50: 42.4 µM

COc1cc(/C=C/[N+](=O)[O-])ccc1O
IC50: 32.6 µM

CCN1/C(=C/C=C/C=C/c2sc3ccccc3[n+]2CC)Sc2ccccc21
IC50: 17.8 µM

O=c1c(O)cccc2cc(O)c(O)c(O)c12
IC50: 21.9 µM

CC(C(=O)NC1C=CS(=O)(=O)C1)N1C(=O)/C(=C/c2ccc(Cl)cc2)SC1=S (configuration not stated)
IC50: 15.4 µM

COc1c(N2CCN(C(=S)Nc3ccccc3F)C(C)C2)c(F)cc2c(=O)c(C(=O)O)cn(C3CC3)c12 (configuration not stated)
IC50: 15.3 µM

Clc1cc(Br)ccc1OCCCNCc1ccccc1
IC50: 75.6 µM

Nc1cccc2nc3ccccc3cc12
IC50: 26.7 µM

O=C1C=C(O)c2c(O)cc(O)c(O)c2C1=O
IC50: 76.8 µM

OCCNCc1c(OCc2ccc(Cl)cc2)ccc2ccccc12
IC50: 90 µM

Oc1cccc2ccc(Nc3ccccn3)nc12
IC50: 10.7 µM

O=C(O)c1cc(O)c2c(c1)[C@@H]([C@H]1c3cc(C(=O)O)cc(O)c3C(=O)c3c(O[C@@H]4O[C@H](CO)[C@@H](O)[C@H](O)[C@H]4O)cccc31)c1cccc(OC3O[C@H](CO)[C@@H](O)[C@H](O)[C@H]3O)c1C2=O (some centres not stated)
IC50: 83.6 µM

OC(c1cc(C(F)(F)F)nc2c(Cl)cc(Cl)cc12)C1CCCCN1 (configuration not stated)
IC50: 80.5 µM

CNc1nc(NCc2ccccc2)c2ccccc2n1
IC50: 79.3 µM

CCCCC(CC)CN=C(N)NC(N)=NCCCCCCN=C(N)NC(N)=NCC(CC)CCCC (configuration not stated)
IC50: 5.51 µM

Cc1ccc(Nc2nc(N)c3ccccc3n2)cc1Cl
IC50: 52.2 µM

CC(C(=O)c1ccc(-c2ccccc2)cc1)[n+]1cccc(NC(=O)c2ccccc2)c1 (configuration not stated)
IC50: 76.6 µM

CCn1cc(C(=O)O)c(=O)c2cc(F)c(N3CCN(C(=S)NC(=O)c4c(OC)cccc4OC)CC3)cc21
IC50: 54.2 µM

Cc1sc2ncnc(N/N=C/c3ccccc3O)c2c1C
IC50: 72.3 µM

Oc1c(I)cc(Cl)c2cccnc12
IC50: 8.56 µM

CCCCCCCCCCOC(=O)Cn1c(COc2ccc(OC)cc2)[n+](C)c2ccccc21
IC50: 21.2 µM and 22.3 µM

Clc1ccc(OCCCNCc2ccccc2)c(Br)c1
IC50: 46.4 µM

CC(=O)NC(c1ccc2ccccc2c1)c1ccc2cccnc2c1O (configuration not stated)
IC50: 100 µM

CN1CCN(C(c2ccc(Cl)cc2)c2cc(Cl)c3cccnc3c2O)CC1 (configuration not stated)
IC50: 33.5 µM

CN1CCN(c2cc3c(cc2F)c(=O)c(C(=O)O)cn3CCF)CC1
IC50: 0.93 µM

Cc1cc(C)c(NC(=O)c2cn3c4c(c(N5CCN(C)CC5)c(F)cc4c2=O)OCC3C)c(C)c1 (configuration not stated)
IC50: 34.2 µM

CCn1cc(C(=O)O)c(=O)c2cc(F)c(N3CCN(C(=S)NC(=O)c4ccc(OC)cc4)CC3)cc21
IC50: 29.4 µM

Oc1cccc(/C=N/Nc2ccc(Cl)nn2)c1O
IC50: 18.3 µM

Cc1ccc(C(C[N+](=O)[O-])c2c(N)n(C)c(=O)n(C)c2=O)cc1 (configuration not stated)
IC50: 15.1 µM

O=S1(=O)CCC(NC(=S)SCCOc2ccccc2)C1 (configuration not stated)
IC50: 64.8 µM

O=[N+]([O-])c1ccc(CNC2CCCc3ccccc32)cc1 (configuration not stated)
IC50: 97.4 µM

CC(C)(C)/C(O)=C/c1nc2cc(Cl)ccc2oc1=O
IC50: 65.1 µM

Cc1cccc(Nc2nc(NCc3ccco3)c3ccccc3n2)c1
IC50: 54.6 µM

Oc1c(Cl)cc(Cl)c2cccnc12
IC50: 10.5 µM

CN(C)CCCN(C(=O)CCc1ccccc1)c1nc2ccc(Cl)cc2s1
IC50: 39 µM

CC(=O)NC(c1cccs1)c1cc([N+](=O)[O-])c2cccnc2c1O (configuration not stated)
IC50: 30.8 µM

CNC[C@H](CC1CCCCC1)NC[C@H](Cc1ccccc1)NCCC12CC3CC(CC(C3)C1)C2
IC50: 16.1 µM

O=C1OC(/C(=C\Nc2ccc(F)cc2F)[N+](=O)[O-])c2ccccc21 (configuration not stated)
IC50: 61.1 µM

CCCCCN=C(N)N/N=C/c1c[nH]c2ccc(OC)cc12
IC50: 37 µM

Cc1ccccc1OCc1n(CC(=O)OC2CC(C)CCC2C(C)C)c2ccccc2[n+]1C (configuration not stated)
IC50: 65.6 µM

CCCCCCCCCCOC(=O)C[N+](C)(C)C/C=C(/C)Cl
IC50: 44.9 µM

CCc1ccc(-c2nn(-c3ccccc3)cc2CSC(=N)N)cc1
IC50: 53.1 µM

CN(C)[C@@H]1C(=O)C(C(N)=O)=C(O)[C@@]2(O)C(=O)C3=C(O)c4c(O)cccc4[C@@](C)(O)C3[C@H](O)C12 (some centres not stated)
IC50: 0.79 µM

CCCC(=O)NC(c1ccc(C)cc1)c1ccc2cccnc2c1O (configuration not stated)
IC50: 100 µM

Oc1cc(Cl)ccc1Oc1ccc(Cl)cc1Cl
IC50: 0.49 µM

CCOC(=O)N1CCN(C(=O)c2cn(CC)c3cc(N4CCN(C)CC4)c(F)cc3c2=O)CC1
IC50: 12 µM

O=C(Nc1ccccc1)Nc1ncc([N+](=O)[O-])s1
IC50: 37.1 µM

Oc1c(CN2CCN(c3ccc(F)cc3)CC2)cc(Cl)c2cccnc12
IC50: 19.8 µM

CCCCCCCCCCCCCCCC[N+](C)(C)C
IC50: 30.5 µM

CCOc1cc(/C=N/N=C(N)N)ccc1OCc1ccc(Cl)cc1
IC50: 52.4 µM

CCC(C)(C)c1ccc(OCCCC[n+]2ccccc2)c(C(C)(C)CC)c1
IC50: 34.9 µM

Cc1nnc(N/N=C/c2ccccn2)[nH]c1=O
IC50: 18 µM

COc1c(N2CCN(C(=S)NCc3ccccc3)C(C)C2)c(F)cc2c(=O)c(C(=O)O)cn(C3CC3)c12 (configuration not stated)
IC50: 90.4 µM

CCCC(=O)NC(c1ccc(N(C)C)cc1)c1ccc2cccnc2c1O (configuration not stated)
IC50: 107 µM

CCCCCCCCCCCCCCCC[n+]1cccc2ccccc21
IC50: 19.1 µM

O=[N+]([O-])c1cc(Cl)c2cccnc2c1O
IC50: 1.62 µM

O=[N+]([O-])c1cc(CN2CCCC2)c2cccnc2c1O
IC50: 40.6 µM

O=C(O)C1Nc2c(O)cccc2C2C=CCC12 (configuration not stated)
IC50: 86.9 µM

C1=C(CCNCc2ccccc2)CCCC1
IC50: 7.93 µM

O=[N+]([O-])c1cc(F)c2cccnc2c1O
IC50: 9.05 µM

COc1cc(C)c(Cc2cnc(N)nc2N)cc1OC
IC50: 2.03 µM

CC(=O)Oc1cc2cccc(OC(C)=O)c(=O)c2c(OC(C)=O)c1OC(C)=O
IC50: 62.8 µM

OCc1ccc(O)c2ncccc12
IC50: 123 µM

CCCCCCCCNC(C)C(O)c1ccc(SC(C)C)cc1 (configuration not stated)
IC50: 75.3 µM

CCCNC1=C(C)C(=O)C2=C(C1=O)C(COC(N)=O)[C@]1(OC)C3NC3CN21 (some centres not stated)
IC50: 128 µM

CNC(=S)N1CCN(c2c(F)cc3c(=O)c(C(=O)O)cn(C4CC4)c3c2OC)CC1C (configuration not stated)
IC50: 44.2 µM

OCCN1CCN(Cc2cc(Cl)c3cccnc3c2O)CC1
IC50: 75.2 µM

O=C(C[n+]1cccc(CNC(=O)c2ccc(OC(F)F)cc2)c1)Nc1ccc(SC(F)F)cc1
IC50: 78.4 µM

COc1ccc(C(C[N+](=O)[O-])C2(c3ccc(OC)c(OC)c3)C(=O)c3ccccc3C2=O)cc1 (configuration not stated)
IC50: 23.2 µM

CCCCCCCCCCCCCCCC[N+](C)(C)CC
IC50: 25.4 µM

CC1(C)CC(=O)C(C(=O)/C=C/NCCc2ccccc2)C(=O)C1
IC50: 122 µM

Cc1cc(SCC(=O)N/N=C/c2ccc(O)c(O)c2O)c(C)cc1Br
IC50: 30.6 µM

CC(=O)NC(c1cccc([N+](=O)[O-])c1)c1ccc2cccnc2c1O (configuration not stated)
IC50: 47.1 µM

O=Cc1ccc(O)c2ncccc12
IC50: 8.12 µM

O=C(Nc1nnc(-c2cccs2)o1)c1cccc(Oc2ccccc2)c1
IC50: 40.8 µM

CCn1cc(C(=O)O)c(=O)c2cc(F)c(N3CCN(C(=S)Nc4ccc(OC)cc4)CC3)cc21
IC50: 15.3 µM

O=C1NC(=S)S/C1=C\C=C\c1ccc([N+](=O)[O-])o1
IC50: 21.7 µM

CN(C)c1ccc(/C=C/c2ccc3c4ccccc4ccc3[n+]2-c2ccccc2)cc1
IC50: 18.8 µM

CCn1cc(C(=O)NCCCO)c(=O)c2cc(F)c(N3CCN(C)CC3)cc21
IC50: 46.8 µM

CCN(CC(=O)NC(C)(C)C)C(=O)COc1c(Cl)cc(Cl)c2ccc(C)nc12
IC50: 82.4 µM

COc1cc(C(=O)Oc2c(CN3CCOCC3)cc(Cl)c3cccnc23)cc(OC)c1OC
IC50: 126 µM

O=[N+]([O-])c1ccc(O)c(/C=N/Nc2ccccn2)c1
IC50: 13.9 µM

O=C(Oc1c(Cl)cc(Cl)c2cccnc12)c1ccco1
IC50: 21.6 µM

Clc1ccc(-c2c[n+](Cc3ccc(Cl)cc3Cl)c3n2CCCCC3)cc1
IC50: 98.8 µM

C/C(=N\N=C(N)N)c1ccc(Cl)c(Cl)c1
IC50: 94.2 µM

CCCCCCNC(=O)c1cn(CC)c2cc(N3CCN(C)CC3)c(F)cc2c1=O
IC50: 38.9 µM
